Results on two compounds are retold here after US20260041690A1, “Treatment of Memory Loss with Phosphodiesterase Inhibitors” (Cyrano Therapeutics, Inc., priority 2023, published 2026).

Structures are written as SMILES.

The subject of data set [1] is memory loss associated with sleep deprivation. The experiment in a line: Treatment of memory loss associated with sleep deprivation in a subject. Type of data set: in vivo. The conditions noted are these: nasal spray, effective dose 3× daily in each naris. The source says:
A subject is admitted to a clinic for a memory loss associated with sleep deprivation. The subject is prescribed a roflumilast composition in a nasal spray device described herein. The subject administers the nasal spray in an effective dose 3× daily in each naris. The nasal spray is characterized by a spray containing a D50 of about 15 μm to about 24 μm, a D90 of from about 30 μm to about […] and where less than about 3% of the droplets in the plume of a spray have a size of less than about 10 μm.

For data set [2] the following is noted: cited from earlier work.

Regarding `O=C(Nc1c(Cl)cncc1Cl)c1ccc(OC(F)F)c(OCC2CC2)c1` [roflumilast], in data set [1], the “memory retention after administration” value is “improved memory retention”.
For the compound `Cn1c(=O)c2[nH]cnc2n(C)c1=O` [theophylline], in data set [2] (in ethanol), the “solubility of theophylline in ethanol” value is 14 to 15 mg/mL. The “solubility of theophylline in water” value in data set [2] (in water) is 7 to 8 mg/mL.
